According to patent publication US9233947B2, “Sulfamides as TRPM8 modulators” (Janssen Pharmaceutica, NV, priority 2008, dated 2016):

Columns and labels:
canine TRPM8 = canine TRPM8 (Canis lupus familiaris, UniProt Q1A7N1); experiment: In Vitro Canine TRPM8 Functional Assay (intracellular Ca2+ fluorescence, icilin activation); format: cell-based; conditions: HEK293 cells stably expressing canine TRPM8; for IC50: icilin challenge at ~80% maximal response, eight-point dose-response, single determinations, read-out: IC50 (μM) @ 0.2; for % Inh @ 0.2 (μM) / inhibition at 0.2 µM: 0.2 μM compound, icilin challenge
Experimental: The functional activity of compounds of the formula (I) was determined by measuring changes in intracellular calcium concentration using a Ca^2+-sensitive fluorescent dye. The changes in fluorescent signal were monitored by a fluorescence plate reader, either a FLIPR™ (Molecular Devices) or FDSS (Hamamatsu).
At 24 hrs prior to assay, HEK293 cells stably expressing canine TRPM8 were seeded in culture medium in black wall, clear-base poly-D-lysine coated 384-well plates (BD Biosciences, NJ, USA) and grown overnight in 5% CO2 at 37° C. On assay day, growth media was removed and cells were loaded with Calcium 3 Dye (Molecular Devices) for 35 min at 37° C., under 5% CO2 and then for 25 min at room temperature and atmosphere. Subsequently, cells were tested for agonist-induced increases in intracellular Ca^2+ levels using FLIPR™ or FDSS. Cells were challenged with a compound of the Formula (I) (at varying concentrations) and intracellular Ca^2+ was measured for 5 min prior to the addition of icilin to all wells to achieve a final concentration that produces approximately an 80% maximal response. EC50 or IC50 values for compounds of the present invention were determined from eight-point dose-response studies. Curves were generated using the average of quadruplicate wells for each data point.

[1] = test system: icilin-induced "wet-dog" shakes; experiment: Reversal of icilin-induced "wet-dog" shaking behavior in rats; format: in vivo; conditions: 10 mg/kg p.o., 1 h post-icilin, relative to WDS count prior to test compound dose
Experimental: Male Sprague Dawley rats (220-450 g, Charles River Labs, n=6-9/treatment) may be used to evaluate the ability of selected compounds of the formula (I) to block icilin-induced “wet-dog” shakes (WDS). Compounds of the formula (I) may be administered in an appropriate vehicle, such as hydroxypropyl-β-cyclodextrin (HPβCD), methocellulose, 10% Solutol, or H2O, or the like, by the appropriate route, i.p. or p.o., 30-120 minutes before icilin. Icilin may be administered in PEG-400 or 10% solutol/H2O, at 1.0 or 3.0 mg/kg, i.p. and spontaneous “wet-dog” shakes may be counted 10-20 minutes post-icilin.
Compounds of the present invention capable of inhibiting the onset of icilin-induced “wet-dog” shaking behavior may also be assessed for their ability to reverse an existing icilin-induced “wet-dog” shaking behavior. In this paradigm, icilin-induced shaking is counted for 10 minutes followed by administration of a compound of the present invention in a suitable vehicle such as hydroxypropyl methylcellulose, hydroxypropyl-β-cyclodextrin or 10% Solutol in water. The diminution of shaking behavior is represented as a percent inhibition relative to icilin-induced shakes in the absence of test compound administration, as described by the following formula: % Inhibition=[1−(WDS count following test compound dose/WDS count prior to test compound dose)]×100.

canine TRPM8, sequence (Q1A7N1 1-1104): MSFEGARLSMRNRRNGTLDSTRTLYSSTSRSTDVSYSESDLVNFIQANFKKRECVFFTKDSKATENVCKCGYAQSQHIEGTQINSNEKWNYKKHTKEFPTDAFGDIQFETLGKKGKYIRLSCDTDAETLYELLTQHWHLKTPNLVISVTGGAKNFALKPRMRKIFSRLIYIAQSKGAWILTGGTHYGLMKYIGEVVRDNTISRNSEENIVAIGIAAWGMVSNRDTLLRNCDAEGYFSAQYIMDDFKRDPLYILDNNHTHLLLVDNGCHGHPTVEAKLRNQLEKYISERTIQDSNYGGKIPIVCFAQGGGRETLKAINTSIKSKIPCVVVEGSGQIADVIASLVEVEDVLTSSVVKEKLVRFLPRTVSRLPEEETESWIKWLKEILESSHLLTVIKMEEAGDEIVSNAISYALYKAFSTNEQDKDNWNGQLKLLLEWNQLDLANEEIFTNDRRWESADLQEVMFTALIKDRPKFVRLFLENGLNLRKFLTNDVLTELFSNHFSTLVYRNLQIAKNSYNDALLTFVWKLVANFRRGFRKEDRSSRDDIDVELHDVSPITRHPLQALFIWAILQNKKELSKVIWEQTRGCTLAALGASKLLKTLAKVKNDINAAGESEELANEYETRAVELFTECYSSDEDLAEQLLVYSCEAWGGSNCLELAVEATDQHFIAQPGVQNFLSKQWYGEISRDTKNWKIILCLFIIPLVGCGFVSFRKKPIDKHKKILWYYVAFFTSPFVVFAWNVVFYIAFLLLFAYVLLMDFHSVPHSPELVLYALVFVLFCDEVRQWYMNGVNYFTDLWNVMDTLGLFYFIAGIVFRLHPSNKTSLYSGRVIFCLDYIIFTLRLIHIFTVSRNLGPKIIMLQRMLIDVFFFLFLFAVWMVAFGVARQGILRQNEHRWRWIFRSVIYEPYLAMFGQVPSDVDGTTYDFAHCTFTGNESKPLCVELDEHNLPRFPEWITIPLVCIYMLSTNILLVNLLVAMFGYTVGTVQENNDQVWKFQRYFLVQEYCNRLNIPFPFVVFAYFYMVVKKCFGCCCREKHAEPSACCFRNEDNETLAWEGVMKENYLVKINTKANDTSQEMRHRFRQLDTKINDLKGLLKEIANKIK

IC50 (canine TRPM8)	% Inh @ 0.2 (μM) (canine TRPM8)	inhibition at 0.2 µM (canine TRPM8)	Compound	% Inhibition [1]
0.071 µM			4-(3-Methyl-butyl)-piperazine-1-sulfonic acid (3-methyl-benzo[b]thiophen-2-yl)-(4-trifluoromethoxy-benzyl)-sulfamoyl]-amide [Compound 5]	
0.06 µM			4-Isopropyl-piperazine-1-sulfonic acid (3-methyl-benzo[b]thiophen-2-yl)-(4-trifluoromethoxy-benzyl)-sulfamoyl]-amide [Compound 4]	
0.046 µM	90%		4-Methyl-piperazine-1-sulfonic acid (3-methyl-benzo[b]thiophen-2-yl)-(4-trifluoromethoxy-benzyl)-sulfamoyl]-amide [Compound 6]	
0.0036 µM		99%	Cc1c(N(Cc2ccc(OC(F)(F)F)cc2)S(=O)(=O)N2CCCCC2)sc2ccccc12 [Compound 1, Piperidine-1-sulfonic acid (3-methyl-benzo[b]thiophen-2-yl)-(4-trifluoromethoxy-benzyl)-amide]	
0.0057 µM	100%		Cc1c(N(Cc2ccc(OC(F)(F)F)cc2)S(=O)(=O)N2CCOCC2)sc2ccccc12 [Compound 2, Morpholine-1-sulfonic acid (3-methyl-benzo[b]thiophen-2-yl)-(4-trifluoromethoxy-benzyl)-amide]	
0.013 µM	100%		Cc1c(N(Cc2ccc(OC(F)(F)F)cc2)S(=O)(=O)N2CCN(CC(F)(F)F)CC2)sc2ccccc12 [Compound 7]	
	9%		Cc1c(N(Cc2ccc(OC(F)(F)F)cc2)S(=O)(=O)NS(=O)(=O)N2CCN(N3CCCC3)CC2)sc2ccccc12 [Compound 9]	
0.0046 µM		101%	Cc1c(N(Cc2ccc(OC(F)(F)F)cc2)S(=O)(=O)N2CCC(C(=O)O)CC2)sc2ccccc12 [Compound 10, 1-[(3-Methyl-benzo[b]thiophen-2-yl)-(4-trifluoromethoxy-benzyl)-sulfamoyl]-piperidine-4-carboxylic acid]	57%
0.061 µM		70%	Cc1c(N(Cc2ccc(OC(F)(F)F)cc2)S(=O)(=O)N2CCC(C(=O)NCCN(C)C)CC2)sc2ccccc12 [Compound 12, 1-[(3-Methyl-benzo[b]thiophen-2-yl)-(4-trifluoromethoxy-benzyl)-sulfamoyl]-piperidine-4-carboxylic acid (2-dimethylamino-ethyl)-amide]	
0.062 µM	72%		Cc1c(N(Cc2ccc(F)c(C(F)(F)F)c2)S(=O)(=O)NCCCC(=O)O)sc2ccccc12 [Compound 13, N-(4-Fluoro-3-trifluoromethyl-benzyl)-N-(3-methyl-benzo[b]-thiophen-2-yl)-N′-(butyric acid)-sulfonamide]	
	33%		O=C(O)CNS(=O)(=O)N(Cc1ccc(F)c(C(F)(F)F)c1)c1sc2ccccc2c1Br [Compound 14, N-(3-Bromo-benzo[b]thiophen-2-yl)-N-(4-fluoro-3-trifluorobenzyl)-(N-acetic acid)-sulfonamide]	
0.018 µM	101%		O=C(O)CCCNS(=O)(=O)N(Cc1ccc(F)c(C(F)(F)F)c1)c1sc2ccccc2c1Br [Compound 15, N-(3-Bromo-benzo[b]thiophen-2-yl)-N-(4-fluoro-3-trifluorobenzyl)-(N-butyric acid)-sulfonamide]	
0.0085 µM	101%		O=C(O)CCCCNS(=O)(=O)N(Cc1ccc(F)c(C(F)(F)F)c1)c1sc2ccccc2c1Br [Compound 16]	

Compound	IC50 (canine TRPM8)	% Inh @ 0.2 (μM) (canine TRPM8)	inhibition at 0.2 µM (canine TRPM8)	% Inhibition [1]
Cc1c(N(Cc2ccc(OC(F)(F)F)cc2)S(=O)(=O)NS(=O)(=O)N2CCNCC2)sc2ccccc12 [Compound 3]		19%		
Cc1c(N(Cc2ccc(OC(F)(F)F)cc2)S(=O)(=O)NS(=O)(=O)N2CCC(N(C)C)CC2)sc2ccccc12 [Compound 8]		36%		
Cc1c(N(Cc2ccc(OC(F)(F)F)cc2)S(=O)(=O)N2CCC(C(=O)N3CCN(C)CC3)CC2)sc2ccccc12 [Compound 11]		30%		
